Tests used:
Experiment in all cases: relative viability (nuclei count vs DMSO), 5 days (fraction); higher = more cells survive
[1] = compound: O=C(O)c1ccc2c(c1)nc(Nc1cccc(Cl)c1)c1ccncc12 [Silmitasertib] + CC(C)C[C@H](NC(=O)[C@H](Cc1ccccc1)NC(=O)c1cnccn1)B(O)O [Bortezomib] (partner 0.002 µM)
In short: (§1)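 Medians of duplicate plates are given as relative viability. That measure is the nuclei count in treated wells divided by the count in vehicle wells. Counts were taken on 4× images of lung cancer cell lines in 1536-well plates, 5 days after pin-tool dosing the day after seeding with one drug alone or a fixed anchor-drug dose plus five library-drug doses (not always all listed) in √10 steps.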

[2] = compound: O=C(O)c1ccc2c(c1)nc(Nc1cccc(Cl)c1)c1ccncc12 [Silmitasertib] + Nc1ncn([C@H]2C[C@H](O)[C@@H](CO)O2)c(=O)n1 [Decitabine] (partner 2 µM)
In short: as §1

[3] = compound: O=C(O)c1ccc2c(c1)nc(Nc1cccc(Cl)c1)c1ccncc12 [Silmitasertib] + Nc1nc2[nH]cc(CCc3ccc(C(=O)N[C@@H](CCC(=O)O)C(=O)O)cc3)c2c(=O)[nH]1 [Pemetrexed] (partner 0.2 µM)
In short: as §1

[4] = compound: O=C(O)c1ccc2c(c1)nc(Nc1cccc(Cl)c1)c1ccncc12 [Silmitasertib] + COc1cc2c(Oc3ccc(NC(=O)C4(C(=O)Nc5ccc(F)cc5)CC4)cc3F)ccnc2cc1OCCCN1CCOCC1 [Foretinib] (partner 0.25 µM)
In short: as §1

[5] = compound: O=C(O)c1ccc2c(c1)nc(Nc1cccc(Cl)c1)c1ccncc12 [Silmitasertib] + CC(=O)c1c(C)c2cnc(Nc3ccc(N4CCNCC4)cn3)nc2n(C2CCCC2)c1=O [Palbociclib] (partner 0.5 µM)
In short: as §1

Cell Line	relative viability ([1]; first compound 0.04 µM)	relative viability ([1]; first compound 1.265 µM)	relative viability ([1]; first compound 4 µM)	relative viability ([2]; first compound 0.04 µM)	relative viability ([2]; first compound 0.4 µM)	relative viability ([2]; first compound 1.265 µM)	relative viability ([2]; first compound 4 µM)	relative viability ([3]; first compound 0.04 µM)	relative viability ([3]; first compound 0.4 µM)	relative viability ([3]; first compound 1.265 µM)	relative viability ([3]; first compound 4 µM)	relative viability ([4]; first compound 0.04 µM)	relative viability ([4]; first compound 0.4 µM)	relative viability ([4]; first compound 1.265 µM)	relative viability ([4]; first compound 4 µM)	relative viability ([5]; first compound 0.04 µM)	relative viability ([5]; first compound 0.4 µM)	relative viability ([5]; first compound 1.265 µM)	relative viability ([5]; first compound 4 µM)	relative viability ([1]; first compound 0.4 µM)
HCC-366	1.1	0.995	0.482	0.37	0.347	0.31	0.379	0.13	0.162	0.175	0.128	1	0.877	0.78	1.02	0.422	0.329	0.36	0.38	
HCC-827	1.04	1.2	0.89	0.313		0.153	0.292	0.282		0.282	0.273	1.09		1.06	1.2	0.556		0.343	0.442	
HOP-62	0.504	0.425	0.486	0.24		0.203	0.211	0.281		0.269	0.301	1.1		1.18	1.14	0.466		0.373	0.396	
LC-2-ad	1.13	1	0.605	0.836	0.794	0.689	0.665	0.288	0.264	0.26	0.227	1.14	0.891	0.898	0.827	0.47	0.499	0.462	0.538	0.858
LCLC-97TM1	1.13	0.521	0.208	0.236		0.209	0.251	0.187		0.186	0.144	0.905		0.809	0.861	0.234		0.15	0.151	
LCLC-103H	1.15	0.817	0.739	0.791	0.655	0.616	0.556	0.49	0.394	0.416	0.378	0.828	0.74	0.632	0.625	0.462	0.45	0.266	0.389	0.956
LOU-NH91	0.509	0.394	0.452	0.876	0.801	0.754	0.782	0.357	0.383	0.368	0.457	0.948	0.786	0.859	0.827	0.519	0.522	0.579	0.553	0.46
LU99A	1.22	0.899	0.438	0.824	0.837	0.808	0.605	0.187	0.168	0.148	0.168	0.823	0.833	0.844	0.738	0.359	0.397	0.325	0.404	1.18
LXF-289	1.02	1.05	0.979	0.41		0.377	0.405	0.968		0.8	0.824	0.983		1.04	1.05	0.606		0.657	0.66	
NCI-H23	1.01	0.782	0.706	0.353	0.256	0.255	0.245	0.779	0.389	0.57	0.303	0.97		0.65	0.735	0.467	0.444	0.423	0.393	
NCI-H322M	1.25	0.947	0.804	0.727	0.686	0.674	0.649	0.666	0.536	0.595	0.482	1.01	0.836	0.623	0.544	0.411	0.486	0.422	0.351	0.881
NCI-H441	0.514	0.496	0.17	0.207		0.216	0.231	0.289		0.245	0.281	0.871		0.67	0.277	0.254		0.206	0.178	
NCI-H460	1.22	1.09	1.15	0.551	0.511	0.478	0.363	0.0675	0.0541	0.0651	0.0575	1.04	0.961	1.07	1.15	0.203	0.25	0.189	0.075	0.967
NCI-H520	0.622	0.389	0.422	0.586	0.578	0.528	0.502	0.716	0.716	0.694	0.566	0.742	1	0.934	0.711	0.269	0.238	0.172	0.245	0.515
NCI-H647	1.12	0.705	0.343	0.411	0.387	0.344	0.288	0.183	0.16	0.148	0.134	1.21	1.04	0.874	1.06	0.505	0.376	0.33	0.282	0.866
NCI-H650	0.996	0.614	0.345	0.309	0.315	0.322	0.341	0.981	0.433	0.912	0.659	1.07	0.699	0.884	0.777	0.319	0.236	0.266	0.259	0.515
NCI-H661	0.852	0.734	1.1	0.636	0.617	0.548	0.441	0.93	0.966	0.865	0.666	1.1	1.01	0.892	0.884	0.421	0.511	0.407	0.359	

Cell Line	relative viability ([1]; first compound 0.04 µM)	relative viability ([1]; first compound 1.265 µM)	relative viability ([1]; first compound 4 µM)	relative viability ([2]; first compound 0.04 µM)	relative viability ([2]; first compound 0.4 µM)	relative viability ([2]; first compound 1.265 µM)	relative viability ([2]; first compound 4 µM)	relative viability ([3]; first compound 0.04 µM)	relative viability ([3]; first compound 0.4 µM)	relative viability ([3]; first compound 1.265 µM)	relative viability ([3]; first compound 4 µM)	relative viability ([4]; first compound 0.04 µM)	relative viability ([4]; first compound 0.4 µM)	relative viability ([4]; first compound 1.265 µM)	relative viability ([4]; first compound 4 µM)	relative viability ([5]; first compound 0.04 µM)	relative viability ([5]; first compound 0.4 µM)	relative viability ([5]; first compound 1.265 µM)	relative viability ([5]; first compound 4 µM)	relative viability ([1]; first compound 0.4 µM)
NCI-H838	1.15	0.759	0.66	0.459	0.427	0.402	0.341	0.231	0.234	0.227	0.213	1.16		0.996	0.589	0.253	0.25	0.18	0.199	
NCI-H1355	1.27	1.16	0.929	0.343		0.371	0.285	1.04		1.01	0.852	0.944		0.822	0.916	0.403		0.358	0.366	
NCI-H1437	0.594	0.384	0.474	0.578	0.533	0.445	0.411	0.337	0.3	0.254	0.228	1.28	1.16	1.24	0.942	0.305	0.26	0.221	0.222	
NCI-H1650	0.375	0.232	0.195	0.525	0.419	0.315	0.254	0.339	0.454	0.387	0.319	1.47	1.34	0.902	0.653	0.5	0.436	0.25	0.186	0.192
NCI-H1651	0.957	1.02	0.934	0.65	0.542	0.197	0.692	0.625	0.38	0.247	0.665	0.951	0.892	0.812	0.732	0.495	0.516	0.534	0.528	0.894
NCI-H1666	1.01	0.5	0.468	0.804	0.67	0.498	0.656	0.89	0.795	0.72	0.63	0.954	0.964	0.693	0.6	0.617	0.654	0.578	0.61	0.702
NCI-H1734	0.911	0.827	0.841	0.613	0.52	0.536	0.412	0.443	0.336	0.423	0.386	0.877	0.8	0.781	0.753	0.343	0.326	0.323	0.36	
NCI-H1755	0.91	0.95	0.945	0.715	0.735	0.735	0.762	0.422	0.489	0.383	0.386	0.945	0.911	0.901	1.07	0.436	0.443	0.456	0.447	0.905
NCI-H1915	1.01	1.02	0.424	0.266		0.259	0.253	0.503		0.429	0.302	1.13		1.05	0.991	0.58		0.517	0.297	
NCI-H1975	0.349	0.423	0.331	0.455		0.277	0.401	0.294		0.287	0.219	0.883		0.802	0.83	0.645		0.192	0.499	0.283
NCI-H1993	1.33	0.995	0.745	0.544	0.494	0.552	0.514	0.616	0.524	0.598	0.505	0.817	0.652	0.651	0.65	0.57	0.576	0.525	0.44	0.857
NCI-H2009	1.14	0.944	0.463	0.382	0.39	0.392	0.371	1.09	0.98	1.13	0.908	1.34	1.16	1.13	0.897	0.234	0.199	0.193	0.203	0.545
NCI-H2023	1.13	0.946	0.282	0.239	0.225	0.208	0.195	0.278	0.187	0.266	0.21	0.886	0.75	0.551	0.707	0.336	0.458	0.337	0.354	0.557
NCI-H2085	1.19	0.873	0.889	0.594	0.553	0.553	0.459	1.02	0.647	0.833	0.867	0.918		0.952	0.861	0.461	0.446	0.473	0.439	0.614
NCI-H2087	0.737	0.657	0.421	0.414	0.286	0.181	0.199	0.604	0.64	0.665	0.542	1.22		0.741	0.806	0.217	0.224	0.18	0.139	0.656
NCI-H2126	1.08	1.08	1.05	0.585	0.631	0.497	0.508	0.734	0.623	0.672	0.491	1.21		1.03	1.07	0.357	0.353	0.356	0.349	0.98
NCI-H2347	1.27	0.881	0.652	0.637	0.558	0.606	0.579	0.44		0.363	0.42	0.612	0.762	0.885	0.561	0.43	0.418	0.38	0.394	0.593
